Reference: the supplement of paper PMC11061612

Key:
Experiment in all cases: combination Emax (second highest fraction inhibited in the dose matrix, 72 h); higher = more inhibition; extreme values may be limits of the assay
[1] = tested on: RO82-W-1 (Thyroid Gland Carcinoma)
Procedure, shortened: (§1)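 Cell lines grown in DMEM/F12 or RPMI with 10% FBS were plated in 1536-well plates and held 24 hours at 37°C, 5% CO2 before 72 hours of exposure to two-drug dose matrices, with DMSO typically at 0.2%. CellTiter-Glo 2.0 luminescence gave viability, which was converted to inhibition. Vehicle wells were set to 0 and blank wells to 1. Combination Emax is the second-highest inhibition in the matrix, and Bliss excess is the observed combination effect minus the expected EA + EB − EA·EB, where EA and EB are the single-agent effects.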

[2] = tested on: SNU-5 (Gastric Carcinoma)
Procedure, shortened: as §1

[3] = tested on: DEL (T-Cell Non-Hodgkin's Lymphoma)
Procedure, shortened: as §1

[4] = tested on: LS-180 (Colorectal Carcinoma)
Procedure, shortened: as §1

[5] = tested on: TE-15 (Esophageal Squamous Cell Carcinoma)
Procedure, shortened: as §1

[6] = tested on: SK-ES-1 (Ewing's Sarcoma)
Procedure, shortened: as §1

[7] = tested on: KP-1N (Pancreatic Carcinoma)
Procedure, shortened: as §1

[8] = tested on: KURAMOCHI (Ovarian Carcinoma)
Procedure, shortened: as §1

[9] = tested on: CCRF-CEM (T-Lymphoblastic Leukemia)
Procedure, shortened: as §1

[10] = tested on: ME-1 (Acute Myeloid Leukemia)
Procedure, shortened: as §1

[11] = tested on: B-CPAP (Thyroid Gland Carcinoma)
Procedure, shortened: as §1

[12] = tested on: HT-1376 (Bladder Carcinoma)
Procedure, shortened: as §1

[13] = tested on: UM-UC-3 (Bladder Carcinoma)
Procedure, shortened: as §1

[14] = tested on: Hs-578-T (Breast Carcinoma)
Procedure, shortened: as §1

[15] = tested on: RC-K8 (B-Cell Non-Hodgkin's Lymphoma)
Procedure, shortened: as §1

HOS (Osteosarcoma) = tested on: HOS (Osteosarcoma)
Procedure, shortened: as §1

[16] = tested on: HCC1806 (Breast Carcinoma)
Procedure, shortened: as §1

[17] = tested on: TCCSUP (Bladder Carcinoma)
Procedure, shortened: as §1

T98G (Glioblastoma) = tested on: T98G (Glioblastoma)
Procedure, shortened: as §1

ES4 (Ewing's Sarcoma) = tested on: ES4 (Ewing's Sarcoma)
Procedure, shortened: as §1

Row | SMILES | combination Emax [1] | combination Emax [2] | combination Emax [3] | combination Emax [4] | combination Emax [5] | combination Emax [6] | combination Emax [7] | combination Emax [8] | combination Emax [9] | combination Emax [10] | combination Emax [11] | combination Emax [12] | combination Emax [13] | combination Emax [14] | combination Emax [15] | combination Emax (HOS (Osteosarcoma)) | combination Emax [16] | combination Emax [17] | combination Emax (T98G (Glioblastoma)) | combination Emax (ES4 (Ewing's Sarcoma))
1 | CS(=O)(=O)CCNCc1ccc(-c2ccc3ncnc(Nc4ccc(OCc5cccc(F)c5)c(Cl)c4)c3c2)o1 [Lapatinib] + C[C@@H](Oc1cc(-c2cnn(C3CCNCC3)c2)cnc1N)c1c(Cl)ccc(F)c1Cl [Crizotinib] (first compound max 10 µM, 7x7, partner max 10 µM) | 0.203 | 0.927 | 1 | 0.908 | 0.906 | 0.938 | 0.809 | 0.721 | 0.881 | 0.194 | 0.984 | 0.255 | 0.307 | 0.991 | 0.622 | 0.408 | 0.95 | 0.508 | 0.949 | 0.928
2 | CC(=O)c1c(C)c2cnc(Nc3ccc(N4CCNCC4)cn3)nc2n(C2CCCC2)c1=O [Palbociclib] + CC1(C)CCC(CN2CCN(c3ccc(C(=O)NS(=O)(=O)c4ccc(NCC5CCOCC5)c([N+](=O)[O-])c4)c(Oc4cnc5[nH]ccc5c4)c3)CC2)=C(c2ccc(Cl)cc2)C1 [Venetoclax] (first compound max 10 µM, 7x7, partner max 1 µM) | 0.174 | 0.336 | 0.874 | 0.61 | 0.343 | 0.749 | 0.212 | 0.0917 | 0.67 | 1 | 0.237 | 0.0784 | 0.175 | 0.189 | 0.506 | 0.258 | 0.268 | 0.152 | 0.355 | 0.21
3 | CC(=O)c1c(C)c2cnc(Nc3ccc(N4CCNCC4)cn3)nc2n(C2CCCC2)c1=O [Palbociclib] + Cc1c2c(nn1C)CSCc1cc(n(C)n1)CSc1cc(c3ccccc3c1)OCCCc1c(C(=O)O)n(C)c3c-2c(Cl)ccc13 [AZD5991] (first compound max 10 µM, 7x7, partner max 1 µM) | 0.189 | 0.347 | 1 | 0.521 | 0.435 | 0.851 | 0.212 | 0.358 | 0.732 | 0.693 | 0.427 | 0.216 | 0.253 | 0.372 | 0.316 | 0.404 | 0.383 | 0.173 | 0.4 | 0.244
4 | CC(=O)c1c(C)c2cnc(Nc3ccc(N4CCNCC4)cn3)nc2n(C2CCCC2)c1=O [Palbociclib] + Cn1cnc2c(F)c(Nc3ccc(Br)cc3Cl)c(C(=O)NOCCO)cc21 [Selumetinib] (first compound max 10 µM, 7x7, partner max 10 µM) | 0.178 | 0.649 | 0.92 | 0.759 | 0.657 | 0.622 | 0.196 | 0.227 | 0.624 | 0.428 | 0.356 | 0.0425 | 0.246 | 0.344 | 0.459 | 0.362 | 0.414 | 0.187 | 0.374 | 0.224
5 | COc1cccc(OCCCN)c1-c1cc(Nc2cnc(C#N)cn2)n[nH]1 [Prexasertib] + CCc1c2c(nc3ccc(O)cc13)-c1cc3c(c(=O)n1C2)COC(=O)[C@]3(O)CC [SN-38] (first compound max 1 µM, 7x7, partner max 0.3 µM) | 0.511 | 1 | 1 | 0.759 | 0.921 | 1 | 0.64 | 0.897 | 1 | 0.627 | 0.968 | 0.529 | 0.987 | 0.982 | 1 | 0.994 | 0.996 | 0.934 | 0.904 | 0.878
6 | C[C@@H](c1ccc2nccn2c1)n1nnc2ncc(-c3cnn(C)c3)nc21 [Savolitinib] + CC1(C)CCC(CN2CCN(c3ccc(C(=O)NS(=O)(=O)c4ccc(NCC5CCOCC5)c([N+](=O)[O-])c4)c(Oc4cnc5[nH]ccc5c4)c3)CC2)=C(c2ccc(Cl)cc2)C1 [Venetoclax] (first compound max 1 µM, 7x7, partner max 1 µM) | 0.169 | 0.847 | 0.0701 | 0.205 | 0.287 | 0.197 | 0.13 | 0.15 | 0.124 | 1 | 0.155 | 0.103 | 0.143 | 0.312 | 0.129 | 0.205 | 0.142 | 0.143 | 0.159 | 0.113
7 | C[C@@H](c1ccc2nccn2c1)n1nnc2ncc(-c3cnn(C)c3)nc21 [Savolitinib] + Cc1c2c(nn1C)CSCc1cc(n(C)n1)CSc1cc(c3ccccc3c1)OCCCc1c(C(=O)O)n(C)c3c-2c(Cl)ccc13 [AZD5991] (first compound max 1 µM, 7x7, partner max 1 µM) | 0.169 | 0.937 | 1 | 0.199 | 0.282 | 0.781 | 0.194 | 0.286 | 0.151 | 0.397 | 0.211 | 0.179 | 0.14 | 0.47 | 0.113 | 0.278 | 0.2 | 0.252 | 0.12 | 0.117
8 | Cn1cnc2c(F)c(Nc3ccc(Br)cc3Cl)c(C(=O)NOCCO)cc21 [Selumetinib] + C=CCn1c(=O)c2cnc(Nc3ccc(N4CCN(C)CC4)cc3)nc2n1-c1cccc(C(C)(C)O)n1 [AZD1775] (first compound max 10 µM, partner max 1 µM) | 0.183 | 0.638 | 1 | 0.604 | 0.74 | 0.944 | 0.257 | 0.65 | 0.996 | 0.484 | 0.472 | 0.362 | 0.268 | 0.577 | 0.72 | 0.222 | 0.919 | 0.429 | 0.699 | 0.433
9 | Cn1cnc2c(F)c(Nc3ccc(Br)cc3Cl)c(C(=O)NOCCO)cc21 [Selumetinib] + CC(C)n1c(=O)n(C)c2cnc3cc(F)c(-c4ccc(OCCCN5CCCCC5)nc4)cc3c21 [AZD1390] (first compound max 10 µM, 7x7, partner max 0.3 µM) | 0.125 | 0.54 | 0.237 | 0.573 | 0.409 | 0.19 | 0.102 | 0.194 | 0.108 | 0.434 | 0.254 | 0.157 | 0.187 | 0.369 | 0.209 | 0.11 | 0.299 | 0.109 | 0.191 | 0.0668
10 | Cn1cnc2c(F)c(Nc3ccc(Br)cc3Cl)c(C(=O)NOCCO)cc21 [Selumetinib] + CCN(CCO)CCCOc1ccc2c(Nc3cc(CC(=O)Nc4cccc(F)c4)[nH]n3)ncnc2c1 [AZD2811] (first compound max 10 µM, 7x7, partner max 1 µM) | 0.203 | 0.569 | 0.965 | 0.623 | 0.492 | 0.96 | 0.135 | 0.251 | 0.968 | 0.413 | 0.346 | 0.198 | 0.224 | 0.491 | 0.443 | 0.198 | 0.321 | 0.217 | 0.226 | 0.145
11 | Cn1cnc2c(F)c(Nc3ccc(Br)cc3Cl)c(C(=O)NOCCO)cc21 [Selumetinib] + C[C@@H]1COCCN1C2=NC(=NC(=C2)C3(CC3)[S@](=N)(=O)C)C4=C5C=CNC5=NC=C4 [AZD6738] (first compound max 10 µM, 7x7, partner max 10 µM) | 0.266 | 0.961 | 1 | 0.76 | 0.834 | 0.82 | 0.175 | 0.554 | 0.963 | 0.469 | 0.421 | 0.467 | 0.312 | 0.628 | 0.87 | 0.529 | 0.938 | 0.546 | 0.731 | 0.864
12 | CC(=O)Nc1cccc(-n2c(=O)n(C3CC3)c(=O)c3c(Nc4ccc(I)cc4F)n(C)c(=O)c(C)c32)c1 [Trametinib] + Cc1nc(-c2cn3c(n2)-c2ccc(-c4cnn(C(C)(C)C(N)=O)c4)cc2OCC3)n(C(C)C)n1 [Taselisib] (first compound max 1 µM, 7x7, partner max 10 µM) | 0.41 | 0.829 | 0.618 | 0.903 | 0.664 | 0.696 | 0.644 | 0.703 | 0.517 | 0.381 | 0.558 | 0.339 | 0.773 | 0.919 | 0.512 | 0.43 | 0.798 | 0.65 | 0.855 | 0.715
13 | CC1(C)CCC(CN2CCN(c3ccc(C(=O)NS(=O)(=O)c4ccc(NCC5CCOCC5)c([N+](=O)[O-])c4)c(Oc4cnc5[nH]ccc5c4)c3)CC2)=C(c2ccc(Cl)cc2)C1 [Venetoclax] + C1CN(CCC1(C(=O)N[C@@H](CCO)C2=CC=C(C=C2)Cl)N)C3=NC=NC4=C3C=CN4 [Capivasertib] (first compound max 1 µM, 7x7, partner max 3 µM) | 0.251 | 0.336 | 0.295 | 0.287 | 0.401 | 0.469 | 0.172 | 0.536 | 0.957 | 1 | 0.177 | 0.11 | 0.272 | 0.812 | 0.333 | 0.281 | 0.231 | 0.189 | 0.326 | 0.155
